{
  "source": "patent US20170232017A1",
  "about": "“TREATMENT OF CANCER” (Threshold Pharmaceuticals, Inc., priority 2012, published 2017)",
  "test_system": "patients with first-line advanced pancreatic cancer",
  "test": "randomized controlled Phase 2b clinical trial of TH-302 in combination with gemcitabine vs gemcitabine alone (NCT01144455)",
  "experimental": "(§1) The clinical trial was conducted as a multi-center, randomized, controlled, dose-ranging, Phase 2b crossover clinical trial of TH-302 in combination with gemcitabine in patients with first line advanced pancreatic cancer. The primary endpoint of the trial was progression-free survival. The secondary endpoints were overall response rate, overall survival, change in CA 19-9 as well as various other efficacy and safety parameters. Tumor response was evaluated at baseline and every eight weeks using RECIST. Patients for whom monotherapy with gemcitabine is considered standard therapy were eligible for the trial. Patients were randomized equally into one of three cohorts: TH-302 at a dose of 240 mg/m^2 plus gemcitabine, TH-302 at a dose of 340 mg/m^2 plus gemcitabine, or gemcitabine alone. Patients who successfully completed six cycles of treatment without evidence of significant treatment-related toxicity or progressive disease could continue to receive treatment. If a patient experienced cancer progression on gemcitabine alone, the patient could cross over and be randomized into one of the TH-302 plus gemcitabine cohorts. The primary efficacy analysis was performed based upon 149 investigator-assessed PFS events and per protocol pooled the data from the two gemcitabine plus TH-302 dose groups in the comparison to gemcitabine alone.\nIn a separate Phase 2b trial, TH-302 was administered intravenously for 30 to 60 minutes on days 1, 8 and 15 of a 28 day cycle at either 240 mg/m^2 or 340 mg/m^2. Gemcitabine was dosed according to its package insert on days 1, 8 and 15 of a 28 day cycle. The 214 patient randomized controlled Phase 2b clinical trial compared the efficacy and safety of these two doses (240 mg/m^2 and 340 mg/m^2) of TH-302 in combination with gemcitabine to gemcitabine alone in patients with first-line advanced pancreatic cancer.\nas §1, with “CA19-9” for “CA 19-9”, “over” for “over and be randomized”\nThis example is an update of the open-label, multicenter, randomized, Phase 2b study (NCT01144455) of two dose levels of TH-302 in combination with gemcitabine vs gemcitabine alone. The update was conducted in September 2012 and including a further follow-up of the data provided in Example 2.\nPatients were stratified according to their disease stage (unresectable locally advanced vs distant metastases) and randomized as shown in FIG. 4.",
  "data": [
    {"smiles": "Nc1ccn([C@@H]2O[C@H](CO)[C@@H](O)C2(F)F)c(=O)n1", "note": "[gemcitabine]", "values": [
      {"measurement": "response rate", "setting": "gemcitabine alone arm, primary analysis", "value": 12, "unit": "%"},
      {"measurement": "median progression-free survival (PFS)", "setting": "gemcitabine alone, primary analysis", "value": 3.6, "unit": "months"},
      {"measurement": "Median time to CA 19-9 response, months (range)", "setting": "human, in vivo", "value": "1.8 (0.9-5.6) months"},
      {"measurement": "Patients with AEs, (%): Any rash", "setting": "human, in vivo", "value": 16, "unit": "%"},
      {"measurement": "Patients with AEs, (%): Pyrexia", "setting": "human, in vivo", "value": 23, "unit": "%"},
      {"measurement": "Patients with AEs, (%): Stomatitis", "setting": "human, in vivo", "value": 7, "unit": "%"},
      {"measurement": "Mean CA 19-9 nadir change", "setting": "patients with baseline > upper limit of normal and at least one post-baseline assessment", "value": "−523", "unit": "U/mL"},
      {"measurement": "CA 19-9 decrease >20%, (%)", "setting": "percent of patients", "value": 68, "unit": "%"},
      {"measurement": "CA 19-9 decrease >50%, (%)", "setting": "percent of patients", "value": 52, "unit": "%"},
      {"measurement": "CA 19-9 decrease >90%, (%)", "setting": "percent of patients", "value": 16, "unit": "%"},
      {"measurement": "6-month survival rate", "setting": "update September 2012", "value": 57, "unit": "%"},
      {"measurement": "12-month survival rate", "setting": "update September 2012", "value": 26, "unit": "%"},
      {"measurement": "Disease control (CR, PR, plus stable disease)", "setting": "update September 2012", "value": "67 % of patients"},
      {"measurement": "Grade 3/4 febrile neutropenia", "setting": "update September 2012", "value": "0 % of patients"},
      {"measurement": "Objective best (unconfirmed) response (CR plus PR)", "setting": "update September 2012", "value": "10 % of patients"},
      {"measurement": "Treatment-emergent Grade 3/4 neutropenia", "setting": "update September 2012", "value": "16 % of patients"},
      {"measurement": "Treatment-emergent Grade 3/4 thrombocytopenia", "setting": "update September 2012", "value": 10, "unit": "%"},
      {"measurement": "median PFS", "setting": "update September 2012, FIG. 5A", "value": 3.6, "unit": "months"},
      {"measurement": "Median OS", "setting": "update September 2012, FIG. 5B", "value": 6.9, "unit": "months"}
    ]},
    {"smiles": "Cn1c(COP(=O)(NCCBr)NCCBr)cnc1[N+](=O)[O-]", "note": "[TH-302, (2-bromoethyl)({[(2-bromoethyl)amino][(2-nitro-3-methylimidazol-4-yl)methoxy]phosphoryl})-amine]", "values": [
      {"measurement": "improvement in median PFS", "setting": "TH-302 treated groups (combined) vs gemcitabine alone", "value": "about 2 months"},
      {"measurement": "Skin and mucosal toxicities related to TH-302", "setting": "in combination with gemcitabine", "value": "dose dependent but not dose limiting"},
      {"measurement": "median PFS", "setting": "two groups (combined) that received TH-302 at different doses plus gemcitabine, FIG. 2A", "value": 5.6, "unit": "months"}
    ]}
  ]
}
